Assays:
[1] = molecular target: T1, BChE from equine serum (EqBChE) (Equus caballus, UniProt P81908); experiment: biochemical; format: biochemical; settings: for IC50: equine serum BChE, mean ± SD from three independent experiments
T1 construct: BChE from equine serum; purchased Merck (Prague, Czech Republic); host or cells: equine serum (natural source)
Description: (§1) Hydrazinecarboxamides 1–3 were examined in vitro for their potential to inhibit the function of AChE (obtained from electric eel) and BChE from equine serum using Ellman’s spectrophotometric method (Table 2). The activities are expressed as IC50 values, i.e., concentrations leading to 50% inhibition of enzymatic activity. Based on the IC50 values for AChE and BChE, we calculated selectivity indexes (SI) that quantified the selectivity for each cholinesterase. SI is the ratio of IC50 for BChE/IC50 for AChE.
(§2) The enzyme activity in the final reaction mixture (2000 µL) was 0.2 U/mL, the concentration of ATCh (or BTCh) was 40 µM, and the concentration of DTNB was 100 µM for all reactions. The investigated derivatives were dissolved in DMSO and then diluted with demineralized water (conductivity 3 μS, equipment supplier BKG Water Treatment, Hradec Králové, Czech Republic) to a concentration of 1000 µM. Five different inhibitor concentrations were used for all tested compounds in the final reaction mixture. The final concentration of DMSO was 0.2%. All experiments were performed in triplicate. The average values of the reaction rate (v0-uninhibited reaction, vi-inhibited reaction) were used to construct the dependence of v0/vi on the concentration of inhibitors. IC50 values were calculated from obtained regression curve equations.
(§3) Acetylcholinesterase originating from electric eels (Electrophorus electricus L.; EeAChE) and butyrylcholinesterase obtained from equine serum (EqBChE) were used.

[2] = molecular target: T2, AChE (obtained from electric eel; EeAChE) (Electrophorus electricus, UniProt O42275); experiment: biochemical; format: biochemical; settings: for Selectivity BChE/AChE: SI = ratio of IC50 for BChE/IC50 for AChE, above 1 = stronger inhibition of AChE; for IC50: electric eel AChE, mean ± SD from three independent experiments
T2 construct: AChE (obtained from electric eel); purchased Merck (Prague, Czech Republic); host or cells: electric eel (natural source)
Description: as §1, §2, §3

T1 sequence (P81908 whole entry): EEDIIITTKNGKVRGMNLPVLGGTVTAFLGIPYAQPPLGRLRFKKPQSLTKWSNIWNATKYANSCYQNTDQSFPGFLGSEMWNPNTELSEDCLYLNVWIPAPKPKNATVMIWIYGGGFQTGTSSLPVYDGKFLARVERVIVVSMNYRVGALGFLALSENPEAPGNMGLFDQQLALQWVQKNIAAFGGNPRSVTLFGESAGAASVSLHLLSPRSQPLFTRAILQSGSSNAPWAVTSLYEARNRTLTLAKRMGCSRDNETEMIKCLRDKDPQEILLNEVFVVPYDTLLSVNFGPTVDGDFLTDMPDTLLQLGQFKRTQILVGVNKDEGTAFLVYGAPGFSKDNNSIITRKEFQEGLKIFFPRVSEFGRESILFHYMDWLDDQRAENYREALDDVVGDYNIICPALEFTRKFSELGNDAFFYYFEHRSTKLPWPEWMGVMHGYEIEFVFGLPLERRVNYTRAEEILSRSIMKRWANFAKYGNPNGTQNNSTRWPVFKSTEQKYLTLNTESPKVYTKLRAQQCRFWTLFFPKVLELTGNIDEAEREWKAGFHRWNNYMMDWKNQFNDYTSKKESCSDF
T2 sequence (O42275 24-633): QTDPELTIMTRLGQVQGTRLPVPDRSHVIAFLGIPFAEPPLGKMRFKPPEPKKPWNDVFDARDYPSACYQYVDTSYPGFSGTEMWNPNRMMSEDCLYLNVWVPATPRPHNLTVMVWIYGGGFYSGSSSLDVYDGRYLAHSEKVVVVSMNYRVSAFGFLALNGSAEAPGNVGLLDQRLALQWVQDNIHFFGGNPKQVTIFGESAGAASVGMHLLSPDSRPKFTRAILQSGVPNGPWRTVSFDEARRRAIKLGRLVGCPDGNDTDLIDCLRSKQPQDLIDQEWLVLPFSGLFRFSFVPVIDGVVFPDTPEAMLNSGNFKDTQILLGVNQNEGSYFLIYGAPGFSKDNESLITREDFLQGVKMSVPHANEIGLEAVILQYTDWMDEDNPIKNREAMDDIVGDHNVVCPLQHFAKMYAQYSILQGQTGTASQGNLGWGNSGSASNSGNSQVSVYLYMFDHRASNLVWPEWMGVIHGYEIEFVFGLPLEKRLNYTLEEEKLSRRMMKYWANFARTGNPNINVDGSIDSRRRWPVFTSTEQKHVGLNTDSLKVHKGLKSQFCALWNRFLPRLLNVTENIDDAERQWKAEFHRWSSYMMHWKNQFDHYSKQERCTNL

Row | Structure (SMILES) | IC50 [1] [µM] | Selectivity BChE/AChE [2] | IC50 [2] [µM] | Fold improvement of BChE inhibition, tridecyl vs. N-methyl analog ([1]; 1g vs. 1h) [×] | Fold superiority of BChE inhibition over parent compound P2 ([1]; vs. P2) [×]
1 | CNC(=O)NNC(=O)c1ccc(OC(F)(F)F)cc1 [1a, N-Methyl-2-[4-(trifluoromethoxy)benzoyl]hydrazine-1-carboxamide] | 204 ± 13.5 | 3.6 | 56.76 ± 0.49 |  | 
2 | CNC(=O)NNC(=O)c1ccc(O)cc1 [1aa, 2-(4-Hydroxybenzoyl)-N-methylhydrazine-1-carboxamide] | 247 ± 18.4 | 3.7 | 67.6 ± 1.3 |  | 
3 | CCCCCCCCCCCCCNC(=O)NNC(=O)c1ccc(OC(F)(F)F)cc1 [1b, N-Tridecyl-2-[4-(trifluoromethoxy)benzoyl]hydrazine-1-carboxamide] | 125.2 ± 1.17 | 1.9 | 65.1 ± 1.15 |  | 
4 | CCCCCCCCCCCCCNC(=O)NNC(=O)c1ccc(O)cc1 [1bb, 2-(4-Hydroxybenzoyl)-N-tridecylhydrazine-1-carboxamide] | 149 ± 10.7 | 2.0 | 74.7 ± 3.31 |  | 
5 | CNC(=O)NNC(=O)c1ccc(F)cc1 [1c, 2-(4-Fluorobenzoyl)-N-methylhydrazine-1-carboxamide] | 366 ± 78.4 | 6.4 | 57.2 ± 1.66 |  | 
6 | CNC(=O)NNC(=O)c1ccc(S(N)(=O)=O)cc1 [1cc, N-Methyl-2-(4-sulfamoylbenzoyl)hydrazine-1-carboxamide] | 250 ± 5.22 | 2.9 | 86.14 ± 0.5 |  | 
7 | CCCCCCCCCCCCCNC(=O)NNC(=O)c1ccc(F)cc1 [1d, 2-(4-Fluorobenzoyl)-N-tridecylhydrazine-1-carboxamide] | 483 ± 20.2 | 8.0 | 60.16 ± 0.53 |  | 
8 | CCCCCCCCCCCCCNC(=O)NNC(=O)c1ccc(S(N)(=O)=O)cc1 [1dd, 2-(4-Sulfamoylbenzoyl)-N-tridecylhydrazine-1-carboxamide] | 275 ± 10.7 | 3.7 | 74.6 ± 1.12 |  | 
9 | CNC(=O)NNC(=O)c1ccc(Cl)cc1 [1e, 2-(4-Chlorobenzoyl)-N-methylhydrazine-1-carboxamide] | 319 ± 12.6 | 7.2 | 44.1 ± 1.79 |  | 
10 | CNC(=O)NNC(=O)c1ccccc1 [1ee, 2-Benzoyl-N-methylhydrazine-1-carboxamide] | 229.21 ± 0.08 | 3.6 | 63.3 ± 1.49 |  | 
11 | CCCCCCCCCCCCCNC(=O)NNC(=O)c1ccc(Cl)cc1 [1f, 2-(4-Chlorobenzoyl)-N-tridecylhydrazine-1-carboxamide] | 88.7 ± 3.28 | 1.0 | 86.59 ± 0.29 |  | 
12 | CCCCCCCCCCCCCNC(=O)NNC(=O)c1ccccc1 [1ff, 2-Benzoyl-N-tridecylhydrazine-1-carboxamide] | 235 ± 5.57 | 3.2 | 73.4 ± 2.45 |  | 
13 | CNC(=O)NNC(=O)c1ccc(Br)cc1 [1g, 2-(4-Bromobenzoyl)-N-methylhydrazine-1-carboxamide] | 359.6 ± 2.17 | 7.1 | 50.6 ± 1.55 |  | 
14 | CCCCCCCCCCCCCNC(=O)NNC(=O)c1ccc(Br)cc1 [1h, 2-(4-Bromobenzoyl)-N-tridecylhydrazine-1-carboxamide] | 27.08 ± 0.07 | 0.4 | 72.66 ± 0.67 | 13.3 | 
15 | CNC(=O)NNC(=O)c1ccc(I)cc1 [1i, 2-(4-Iodobenzoyl)-N-methylhydrazine-1-carboxamide] | > 500 | >6.8 | 73.8 ± 1.78 |  | 
16 | CCCCCCCCCCCCCNC(=O)NNC(=O)c1ccc(I)cc1 [1j, 2-(4-Iodobenzoyl)-N-tridecylhydrazine-1-carboxamide] | 192 ± 3.45 | 2.4 | 79.7 ± 2.08 |  | 
17 | CNC(=O)NNC(=O)c1ccc([N+](=O)[O-])cc1 [1k, N-Methyl-2-(4-nitrobenzoyl)hydrazine-1-carboxamide] | 178 ± 9.13 | 3.3 | 54 ± 2.21 |  | 

Row | Structure (SMILES) | IC50 [1] [µM] | Selectivity BChE/AChE [2] | IC50 [2] [µM] | Fold improvement of BChE inhibition, tridecyl vs. N-methyl analog ([1]; 1g vs. 1h) [×] | Fold superiority of BChE inhibition over parent compound P2 ([1]; vs. P2) [×]
18 | CCCCCCCCCCCCCNC(=O)NNC(=O)c1ccc([N+](=O)[O-])cc1 [1l, 2-(4-Nitrobenzoyl)-N-tridecylhydrazine-1-carboxamide] | 22.31 ± 0.09 | 0.4 | 53.7 ± 1.2 |  | 12.4
19 | CNC(=O)NNC(=O)c1ccc(C#N)cc1 [1m, 2-(4-Cyanobenzoyl)-N-methylhydrazine-1-carboxamide] | 448 ± 39 | 8.1 | 55.64 ± 0.27 |  | 
20 | CCCCCCCCCCCCCNC(=O)NNC(=O)c1ccc(C#N)cc1 [1n, 2-(4-Cyanobenzoyl)-N-tridecylhydrazine-1-carboxamide] | 418 ± 15.7 | 7.6 | 54.6 ± 1.27 |  | 
21 | CNC(=O)NNC(=O)c1ccc(C)cc1 [1o, N-Methyl-2-(4-methylbenzoyl)hydrazine-1-carboxamide] | 284 ± 13.2 | 4.6 | 62.29 ± 0.56 |  | 
22 | CCCCCCCCCCCCCNC(=O)NNC(=O)c1ccc(C)cc1 [1p, 2-(4-Methylbenzoyl)-N-tridecylhydrazine-1-carboxamide] | 277 ± 6.5 | 2.8 | 100 ± 2.1 |  | 
23 | CNC(=O)NNC(=O)c1ccc(C(C)(C)C)cc1 [1q] | 281 ± 7.79 | 4.7 | 60 ± 2.47 |  | 
24 | CCCCCCCCCCCCCNC(=O)NNC(=O)c1ccc(C(C)(C)C)cc1 [1r] | 57.24 ± 0.23 | 0.8 | 75.25 ± 0.43 |  | 
25 | CNC(=O)NNC(=O)c1ccc(-c2ccccc2)cc1 [1s, N-Methyl-2-(4-phenylbenzoyl)hydrazine-1-carboxamide] | 301 ± 7.46 | 4.7 | 64.4 ± 1.67 |  | 
26 | CCCCCCCCCCCCCNC(=O)NNC(=O)c1ccc(-c2ccccc2)cc1 [1t, 2-(4-Phenylbenzoyl)-N-tridecylhydrazine-1-carboxamide] | 32.1 ± 0.18 | 0.6 | 51.1 ± 0.98 |  | 
27 | CNC(=O)NNC(=O)c1ccc(OC)cc1 [1u, 2-(4-Methoxybenzoyl)-N-methylhydrazine-1-carboxamide] | 171 ± 8.36 | 3.0 | 57.2 ± 0.92 |  | 
28 | CCCCCCCCCCCCCNC(=O)NNC(=O)c1ccc(OC)cc1 [1v, 2-(4-Methoxybenzoyl)-N-tridecylhydrazine-1-carboxamide] | 376 ± 17 | 4.5 | 83.6 ± 3.16 |  | 
29 | CNC(=O)NNC(=O)c1ccc(Oc2ccccc2)cc1 [1w, N-Methyl-2-(4-phenoxybenzoyl)hydrazine-1-carboxamide] | 302.3 ± 2.11 | 4.0 | 75 ± 0.84 |  | 
30 | CCCCCCCCCCCCCNC(=O)NNC(=O)c1ccc(Oc2ccccc2)cc1 [1x, 2-(4-Phenoxybenzoyl)-N-tridecylhydrazine-1-carboxamide] | 368 ± 14.3 | 6.3 | 58.3 ± 3.29 |  | 
31 | CNC(=O)NNC(=O)c1ccc(N(C)C)cc1 [1y, 2-[4-(Dimethylamino)benzoyl]-N-methylhydrazine-1-carboxamide] | 300 ± 13.6 | 4.3 | 70 ± 1.74 |  | 
32 | CCCCCCCCCCCCCNC(=O)NNC(=O)c1ccc(N(C)C)cc1 [1z, 2-[4-(Dimethylamino)benzoyl]-N-tridecylhydrazine-1-carboxamide] | 188 ± 2.22 | 2.1 | 87.67 ± 0.83 |  | 
33 | CNC(=O)NNC(=O)c1cccc(C(F)(F)F)c1 [2a, N-Methyl-2-[3-(trifluoromethyl)benzoyl]hydrazine-1-carboxamide] | 225 ± 7.84 | 3.7 | 61.3 ± 1 |  | 

Source: PMC9962224, “Novel Inhibitors of Acetyl- and Butyrylcholinesterase Derived from Benzohydrazides: Synthesis, Evaluation and Docking Study” (Pharmaceuticals, 2023)
